This is an account of results in patent US8962608B2, “Cycloalkylnitrile pyrazole carboxamides as janus kinase inhibitors” (Merck Sharp & Dohme Corp., priority 2011, dated 2015).

Assay [1] deals with JAK1 (recombinant purified GST-tagged catalytic domain) (Homo sapiens (Human), UniProt P23458). Description: biochemical.
The target of assay [2] is JAK2 (recombinant purified GST-tagged catalytic domain) (Homo sapiens (Human), UniProt O60674). As to the kind of experiment: biochemical.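 Also: biochemical JAK kinase assay with HTRF detection.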
Sequence of JAK2 (recombinant purified GST-tagged catalytic domain) (O60674 849-1124): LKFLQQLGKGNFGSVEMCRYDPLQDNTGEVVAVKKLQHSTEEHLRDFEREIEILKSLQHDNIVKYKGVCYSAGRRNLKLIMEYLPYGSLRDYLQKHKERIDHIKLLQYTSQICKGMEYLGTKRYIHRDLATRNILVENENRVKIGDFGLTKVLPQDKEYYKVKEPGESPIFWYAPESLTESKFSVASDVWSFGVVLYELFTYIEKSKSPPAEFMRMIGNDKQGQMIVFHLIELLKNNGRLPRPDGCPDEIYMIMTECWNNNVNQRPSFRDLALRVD

Sequence of JAK1 (recombinant purified GST-tagged catalytic domain) (P23458 875-1153): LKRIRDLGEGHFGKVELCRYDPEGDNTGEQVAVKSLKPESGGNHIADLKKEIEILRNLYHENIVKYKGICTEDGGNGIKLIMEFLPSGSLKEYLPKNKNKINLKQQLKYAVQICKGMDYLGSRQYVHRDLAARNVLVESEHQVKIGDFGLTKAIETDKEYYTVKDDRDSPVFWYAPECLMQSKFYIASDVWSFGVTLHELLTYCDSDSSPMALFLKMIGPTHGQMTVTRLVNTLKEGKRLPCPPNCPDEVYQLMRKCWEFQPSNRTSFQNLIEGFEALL

Usually IC50 stands for the point on the concentration scale where inhibition reaches its midpoint. Turning to `CN(C1COC1)[C@H]1CC[C@@H](n2cc(C(N)=O)c(Nc3ccc(C(F)(F)F)cc3)n2)[C@H](C#N)C1` (single isomer, unassigned) [Example 30-1, 1-{(1R,2R,4S or 1S,2S,4R)-2-Cyano-4-[methyl(oxetan-3-yl)amino]cyclohexyl}-3-{[4-(trifluoromethyl)phenyl]amino}-1H-pyrazole-4-carboxamide], the IC50 in assay [1] worked out at 9 nM; in assay [2], 106 nM.
Regarding `N#C[C@H]1C[C@@H](O)CC[C@@H]1n1cc(C(N)=O)c(Nc2ccc([C@@H](O)C(F)(F)F)cc2)n1` (single isomer, unassigned) [Example 33-11, 1-[(1S,2S,4S or 1R,2R,4R)-2-cyano-4-hydroxycyclohexyl]-3-({4-[(1R or 1S)-2,2,2-trifluoro-1-hydroxyethyl]phenyl}amino)-1H-pyrazole-4-carboxamide], the IC50 in assay [1] was 0.45 nM; in assay [2], 3 nM.
The like results for `CC(C)(O)C1CN(C(=O)[C@@H]2CC[C@@H](n3cc(C(N)=O)c(Nc4ccc(Cl)cc4)n3)[C@H](C#N)C2)C1` (single isomer, unassigned) [Example 35-3, 3-[(4-chlorophenyl)amino]-1-[(1R,2R,4R or 1S,2S,4S)-2-cyano-4-{[3-(1-hydroxy-1-methylethyl)azetidin-1-yl]carbonyl}cyclohexyl]-1H-pyrazole-4-carboxamide] were, in that order, 9 nM and 59 nM.
Regarding `CNC(=O)O[C@@H]1CCC(n2cc(C(N)=O)c(Nc3ccc(F)cc3)n2)[C@@H](C#N)C1` (mixture of isomers) [Example 34-6, (1R,3S,4S and 1S,3R,4R)-4-{4-carbamoyl-3-[(4-fluorophenyl)aminol-1H-pyrazol-1-yl}-3-cyanocyclohexyl methylcarbamate], the figures for the IC50 in assay [1] and in assay [2] were 1 nM and 12 nM, respectively.
For the molecule `COCCN[C@H]1CCC(n2cc(C(N)=O)c(Nc3ccc(Cl)cc3)n2)[C@@H](C#N)C1` (single isomer, unassigned) [Example 28-236, 3-[(4-chlorophenyl)amino]-1-{(1S,2S,4S or 1R,2R,4R)-2-cyano-4-[(2-methoxyethyl)amino]cyclo-hexyl}-1H-pyrazole-4-carboxamide], the concentration for half-maximal inhibition (IC50) in assay [1] worked out at 0.9 nM; in assay [2] it was 23 nM.
Take `N#C[C@H]1C[C@@H](NCC(F)F)CC[C@@H]1n1cc(C(N)=O)c(Nc2ccc(Cl)c(F)c2)n1` (single isomer, unassigned) [Example 28-90, 3-[(4-chloro-3-fluorophenyl)amino]-1-{(1S,2S,4S or 1R,2R,4R)-2-cyano-4-[(2,2-difluoroethyl)amino]cyclohexyl}-1H-pyrazole-4-carboxamide]: the IC50 was 4 nM in assay [1] and 35 nM in assay [2].
In the case of `N#C[C@@H]1C[C@H](C(=O)N2CC3(COC3)C2)CC[C@H]1n1cc(C(N)=O)c(Nc2ccc(Cl)cc2)n1` (single isomer, unassigned) [Example 35-36, 3-[(4-chlorophenyl)amino]-1-[(1R,2R,4R or 1S,2S,4S)-2-cyano-4-(2-oxa-6-azaspiro[3.3]hept-6-ylcarbonyl)cyclohexyl]-1H-pyrazole-4-carboxamide], the IC50 in assay [1] amounted to 10 nM; in assay [2], 111 nM.
As to `N#C[C@H]1C[C@H](O)CC[C@@H]1n1cc(C(N)=O)c(Nc2ccc(Cl)c(Cl)c2)n1` (single isomer, unassigned) [Example 25-6, 1-[(1S,2S,4R or 1R,2R,4S)-2-cyano-4-hydroxycyclohexyl]-3-[(3,4-dichlorophenyl)amino]-1H-pyrazole-4-carboxamide], the IC50 in assay [1] is 3 nM; in assay [2], 20 nM.
For `N#C[C@H]1CCCC[C@@H]1n1cc(C(N)=O)c(Nc2ccc(C(F)(F)F)nc2)n1` (single isomer, unassigned) [Example 17-101, 1-[(1S,2S or 1R,2R)-2-cyanocyclohexyl]-3-{[6-(trifluoromethyl)pyridin-3-yl]amino}-1H-pyrazole-4-carboxamide], the IC50 in assay [1] amounted to 2 nM; in assay [2] it was 9 nM.
Consider `N#C[C@H]1C[C@H](O)CCC1n1cc(C(N)=O)c(Nc2ccc(S(=O)(=O)C(F)F)cc2)n1` (mixture of isomers) [Example 14, 1-[(1S,2S,4R and 1R,2R,4S)-2-Cyano-4-hydroxycyclohexyl]-3-({4-[(difluoromethyl)sulfonyl]phenyl}amino)-1H-pyrazole-4-carboxamide], for which the IC50 in assay [1] was found to be 0.32 nM; in assay [2] it was 3 nM.
Take `CC(C)(CO)N[C@H]1CCC(n2cc(C(N)=O)c(Nc3ccc(Cl)cc3)n2)[C@@H](C#N)C1` (single isomer, unassigned) [Example 28-210, 3-[(4-chlorophenyl)amino]-1-{(1S,2S,4S or 1R,2R,4R)-2-cyano-4-[(2-hydroxy-1,1-dimethylethyl)amino]cyclo-hexyl}-1H-pyrazole-4-carboxamide]: the IC50 in assay [1] was found to be 1 nM; in assay [2] it was 41 nM.
For `N#C[C@H]1CCCC[C@@H]1n1cc(C(N)=O)c(Nc2ccc(C3CC3)nc2)n1` (single isomer, unassigned) [Example 17-80, 1-[(1R,2R or 1S,2S)-2-cyanocyclohexyl]-3-[(6-cyclopropylpyridin-3-yl)amino]-1H-pyrazole-4-carboxamide] the same measures were 12 nM and 26 nM.
As to `C[C@H](N[C@H]1CC[C@H](n2cc(C(N)=O)c(Nc3ccc(Cl)c(F)c3)n2)[C@@H](C#N)C1)C1CC1` (single isomer, unassigned) [Example 28-71, 3-[(4-chloro-3-fluorophenyl)amino]-1-[(1S,2S,4S or 1R,2R,4R)-2-cyano-4-{[(1S or 1R)-1-cyclopropylethyl]amino}cyclo-hexyl]-1H-pyrazole-4-carboxamide], the figures for the 50% inhibitory concentration (IC50) in assay [1] and in assay [2] were 2 nM and 97 nM, respectively.
On to `CC(C)(O)CN[C@H]1CCC(n2cc(C(N)=O)c(Nc3ccc(Cl)cc3)n2)[C@@H](C#N)C1` (single isomer, unassigned) [Example 28-221, 3-[(4-chlorophenyl)amino]-1-{(1S,2S,4S or 1R,2R,4R)-2-cyano-4-[(2-hydroxy-2-methylpropyl)amino]cyclo-hexyl}-1H-pyrazole-4-carboxamide], for which the IC50 in assay [1] was 2 nM; in assay [2], 42 nM.
The like results for `N#C[C@H]1CCCC[C@@H]1n1cc(C(N)=O)c(Nc2ccc(CN)cc2)n1` (racemic) [Example 17-45, 3-{[4-(aminomethyl)phenyl]amino}-1-[(1S,2S and 1R,2R)-2-cyanocyclohexyl]-1H-pyrazole-4-carboxamide] were, in that order, 3 nM and 10 nM.
The like results for `N#C[C@H]1C[C@H](O)CC[C@@H]1n1cc(C(N)=O)c(Nc2ccc(C(F)(F)F)cc2)n1` (single isomer, unassigned) [Example 25-5, 1-[(1S,2S,4R or 1R,2R,4S)-2-cyano-4-hydroxycyclohexyl]-3-{[4-(trifluoromethyl)phenyl]amino}-1H-pyrazole-4-carboxamide] were, in that order, 1 nM and 10 nM.
Consider `N#C[C@H]1C[C@@H](C(=O)NC2CC2)CC[C@@H]1n1cc(C(N)=O)c(Nc2ccc(Cl)cc2)n1` (single isomer, unassigned) [Example 35-23, 3-[(4-chlorophenyl)amino]-1-[(1S,2S,4S or 1R,2R,4R)-2-cyano-4-(cyclopropylcarbamoyl)cyclohexyl]-1H-pyrazole-4-carboxamide], for which the 50% inhibitory concentration (IC50) in assay [1] stood at 37 nM; in assay [2], 295 nM.
As to `N#C[C@H]1CC(NCC2CCS(=O)(=O)C2)CC[C@@H]1n1cc(C(N)=O)c(Nc2ccc(S(=O)(=O)C(F)(F)F)cc2)n1` (single isomer, unassigned) [Example 28-152, 1-[(1S,2S or 1R,2R)-2-cyano-4-{[(1,1-dioxidotetrahydrothiophen-3-yl)methyl]amino}cyclohexyl]-3-({4-[(trifluoro-methyl)sulfonyl]phenyl}amino)-1H-pyrazole-4-carboxamide], the IC50 in assay [1] was determined as 0.4 nM; in assay [2], 10 nM.
For `N#C[C@H]1C[C@@H](O)CC[C@@H]1n1cc(C(N)=O)c(Nc2ccc(C(F)(F)F)cc2)n1` (single isomer, unassigned) [Example 33-4, 1-[(1S,2S,4S or 1R,2R,4R)-2-cyano-4-hydroxycyclohexyl]-3-{[4-(trifluoromethyl)phenyl]amino}-1H-pyrazole-4-carboxamide], the IC50 in assay [1] was found to be 5 nM; in assay [2] it was 90 nM.
On to `N#C[C@@H]1CCCC[C@H]1n1cc(C(N)=O)c(Nc2ccc(S(=O)(=O)NCCN3CCOCC3)cc2)n1` (single isomer, unassigned) [Example 17-68, 1-[(1R,2R or 1S,2S)-2-cyanocyclohexyl]-3-({4-[(2-morpholin-4-ylethyl)sulfamoyl]phenyl}amino)-1H-pyrazole-4-carboxamide], for which the 50% inhibitory concentration (IC50) in assay [1] was found to be 0.4 nM; in assay [2], 1 nM.
As to `N#C[C@H]1C[C@@H](C(=O)NCC(F)(F)F)CC[C@@H]1n1cc(C(N)=O)c(Nc2ccc(Cl)cc2)n1` (single isomer, unassigned) [Example 35-22, 3-[(4-chlorophenyl)amino]-1-{(1S,2S,4S or 1R,2R,4R)-2-cyano-4-[(2,2,2-trifluoroethyl)carbamoyl]cyclohexyl}-1H-pyrazole-4-carboxamide], the IC50 in assay [1] was 7 nM; in assay [2] it was 218 nM.
With `N#C[C@H]1C[C@@H](O)CC[C@@H]1n1cc(C(N)=O)c(Nc2ccc(OC(F)(F)F)cc2)n1` (single isomer, unassigned) [Example 33-1, 1-((1S,2S,4S or 1R,2R,4R)-2-Cyano-4-hydroxycyclohexyl)-3-((4-(trifluoromethoxy)phenyl)amino)-1H-pyrazole-4-carboxamide], the IC50 amounted to 0.5 nM in assay [1] and 5 nM in assay [2].
In the case of `CN[C@H]1CCC(n2cc(C(N)=O)c(Nc3ccc(F)cc3)n2)[C@@H](C#N)C1` (mixture of isomers) [Example 27-4, 1-[(1S,2S,4S and 1R,2R,4R)-2-cyano-4-(methylamino)cyclohexyl]-3-[(4-fluorophenyl)amino]-1H-pyrazole-4-carboxamide], the values for the IC50 in assay [1] and in assay [2] were 1 nM and 56 nM, respectively.
